In one data set the target is Cytochrome P450 3A4 (Homo sapiens, UniProt P08684). Put plainly: Inhibitory activity against CYP3A4. Type of data set: ADME.
Data set [1] has as its target T1, Cytochrome P450 2D6 (Homo sapiens, UniProt P10635). Put plainly: Inhibition of CYP2D6 by human liver microsome assay. Type of data set: ADME, microsomes. Background: Liver microsomes are vesicles of endoplasmic reticulum, rich in cytochrome P450 enzymes.
Data set [2] has as its target T2, Histamine H3 receptor (Cavia porcellus, UniProt Q9JI35). Put plainly: Displacement of [3H]N-alpha-methylhistamine from guinea pig histamine H3 receptor.
Data set [3] deals with T1, Cytochrome P450 2D6. The experiment in a line: Inhibition of CYP2D6 by supersome assay. Type of data set: ADME.
For data set [4], the target named is T2, Histamine H3 receptor. The experiment in a line: Antagonistic activity against histamine H3 receptor in guinea pig ileum. Type of data set: functional, tissue-based. To be noted: read-out: pA2 (converted).
Data set [5] is described as follows: Plasma AUC (0-6 h) in rat at 10 mg/kg, po. Type of data set: ADME, organism-based. More on the design: time < 6 hr, dose 10 mg/kg, route oral.
Data set [6] is described as follows: Plasma AUC (0-24 h) in monkey at 3 mg/kg, po. Type of data set: ADME, organism-based, Macaca mulatta. More on the design: time < 24 hr, dose 3 mg/kg, route oral. Particulars: rhesus monkey.

By IC50 is commonly meant the midpoint of a concentration-inhibition curve. One may read the Ki as a dissociation constant, usually derived from enzyme kinetics or from competition with a known ligand. What is called AUC(0-t) is the area under the concentration-time curve up to a stated or last time point.

SMILES strings stand for the structures.

T2 sequence (Q9JI35 whole entry): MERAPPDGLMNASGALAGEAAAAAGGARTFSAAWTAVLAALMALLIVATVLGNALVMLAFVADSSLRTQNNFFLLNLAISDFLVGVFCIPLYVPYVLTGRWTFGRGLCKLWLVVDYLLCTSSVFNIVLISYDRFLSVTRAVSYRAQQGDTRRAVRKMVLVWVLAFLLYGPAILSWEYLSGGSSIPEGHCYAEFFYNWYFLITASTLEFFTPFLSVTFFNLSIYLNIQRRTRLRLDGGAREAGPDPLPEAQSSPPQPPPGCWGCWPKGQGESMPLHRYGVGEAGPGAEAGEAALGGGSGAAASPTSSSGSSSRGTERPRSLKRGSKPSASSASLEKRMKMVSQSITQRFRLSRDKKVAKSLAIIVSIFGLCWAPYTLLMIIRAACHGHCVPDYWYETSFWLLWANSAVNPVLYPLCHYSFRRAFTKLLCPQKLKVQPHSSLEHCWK
T1 sequence (P10635 whole entry): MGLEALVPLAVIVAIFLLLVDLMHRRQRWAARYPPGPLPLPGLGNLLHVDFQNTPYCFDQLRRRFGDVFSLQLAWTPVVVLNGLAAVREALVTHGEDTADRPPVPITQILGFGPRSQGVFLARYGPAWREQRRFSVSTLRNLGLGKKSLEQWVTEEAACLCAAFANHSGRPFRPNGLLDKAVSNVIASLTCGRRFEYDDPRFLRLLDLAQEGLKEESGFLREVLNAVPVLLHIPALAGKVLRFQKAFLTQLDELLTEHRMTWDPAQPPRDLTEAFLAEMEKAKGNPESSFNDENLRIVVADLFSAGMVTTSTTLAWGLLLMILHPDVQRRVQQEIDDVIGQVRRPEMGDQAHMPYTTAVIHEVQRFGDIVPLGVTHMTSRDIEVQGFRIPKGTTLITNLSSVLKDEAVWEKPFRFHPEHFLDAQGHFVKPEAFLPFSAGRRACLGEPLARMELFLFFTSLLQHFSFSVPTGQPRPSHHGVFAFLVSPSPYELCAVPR
Sequence of Cytochrome P450 3A4 (P08684 whole entry): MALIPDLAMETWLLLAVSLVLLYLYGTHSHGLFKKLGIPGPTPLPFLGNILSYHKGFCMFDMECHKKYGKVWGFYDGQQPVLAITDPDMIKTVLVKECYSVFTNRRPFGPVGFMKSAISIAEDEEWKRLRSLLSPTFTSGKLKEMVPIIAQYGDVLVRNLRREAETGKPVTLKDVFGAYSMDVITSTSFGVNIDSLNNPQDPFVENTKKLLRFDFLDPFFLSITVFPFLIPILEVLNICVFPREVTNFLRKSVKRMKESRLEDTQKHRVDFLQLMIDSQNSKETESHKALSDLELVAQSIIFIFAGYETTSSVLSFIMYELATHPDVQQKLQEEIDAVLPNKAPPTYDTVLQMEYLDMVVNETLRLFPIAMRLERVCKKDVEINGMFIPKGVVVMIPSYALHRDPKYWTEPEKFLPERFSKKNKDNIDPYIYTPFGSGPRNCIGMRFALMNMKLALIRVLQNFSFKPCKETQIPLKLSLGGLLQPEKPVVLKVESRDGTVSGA

On to `c1ccc(OCCCN2CCC(Cc3c[nH]cn3)CC2)cc1`, for which the results for the IC50 at Cytochrome P450 3A4 and at Cytochrome P450 2D6 [1] were > 20000 nM and 30 nM, respectively.
On to `NC(=O)C1CCN(Cc2ccc(OCCCN3CCC(Cc4c[nH]cn4)CC3)cc2)CC1`, for which, on Histamine H3 receptor [2], the Ki turned out to be 16 nM. The IC50 against Cytochrome P450 2D6 [3] is > 30000 nM. Also, the Kb at Histamine H3 receptor [4] is 25.1 nM.
Compound `FC1(F)CCN(Cc2ccc(OCCCN3CCC(Cc4cnc[nH]4)CC3)cc2)CC1` returned a Ki at Histamine H3 receptor [2] of 4 nM. Moreover, the IC50 against Cytochrome P450 2D6 [1] is 6000 nM.
`O=C(c1ccc(OCCCN2CCC(Cc3c[nH]cn3)CC2)cc1)N1CCCCC1`: at Histamine H3 receptor [2], affinity was put at a Ki of 26 nM. In addition, the midpoint of inhibition against Cytochrome P450 2D6 [3], the IC50, lay at 2000 nM. Also, on Histamine H3 receptor [4], the Kb was 20 nM.
In the case of `CN(C)CCCOc1ccc(CN2CCC(Cc3cnc[nH]3)CC2)cc1`, on Histamine H3 receptor [2], the affinity corresponds to a Ki of 17 nM. Moreover, the Kb on Histamine H3 receptor [4] is 79.4 nM. Also, the IC50 against Cytochrome P450 2D6 [1] is > 30000 nM.
Compound `O=C(CCOc1ccc(CN2CCCCC2)cc1)N1CCC(Cc2cnc[nH]2)CC1` yielded a Ki at Histamine H3 receptor [2] of 315 nM. In data set [5], this compound returned an AUC(0-t) at 6 h of 1.83 µM·h. Besides, on Cytochrome P450 2D6 [1], the IC50 was found to be 1000 nM.
Compound `Nc1ncc(-c2ccc(OCCCN3CCC(Cc4c[nH]cn4)CC3)cc2)cn1` came in with a Ki at Histamine H3 receptor [2] of 12 nM. Further, the Kb on Histamine H3 receptor [4] is 20 nM. Moreover, the IC50 at Cytochrome P450 2D6 [1] stood at 12000 nM.
With `c1ncc(CC2CCN(CCOc3ccc(CN4CCCCC4)cc3)CC2)[nH]1`, the Ki at Histamine H3 receptor [2] was 5 nM. Besides, the IC50 against Cytochrome P450 2D6 [1] amounted to 3000 nM.
Consider `c1nc(CC2CCN(CCCOc3ccc(CN4CCCCC4)nc3)CC2)c[nH]1`, for which affinity at Histamine H3 receptor [2] was put at a Ki of 10 nM. Further, the Kb at Histamine H3 receptor [4] was 7.94 nM. This compound registered a half-inhibitory concentration (IC50) against Cytochrome P450 2D6 [1] of 3000 nM.
For `c1nc(CC2CCN(CCCCOc3ccc(CN4CCCCC4)cc3)CC2)c[nH]1`, in that order: 16 nM, 15.8 nM and > 20000 nM.
For `c1cnc2ccc(OCCCN3CCC(Cc4cnc[nH]4)CC3)cc2c1`, the Ki at Histamine H3 receptor [2] amounted to 52 nM. Further, on Cytochrome P450 2D6 [1], the IC50 stood at 2000 nM.
In turn, `c1ncc(CC2CCN(CCCOc3ccc(OC4CCCCC4)cc3)CC2)[nH]1` yielded a Ki on Histamine H3 receptor [2] of 6 nM. The IC50 against Cytochrome P450 2D6 [1] was 300 nM.
For `c1ncc(-c2ccc(OCCCN3CCC(Cc4cnc[nH]4)CC3)cc2)cn1`, in that order: 9 nM and 4000 nM.
For `c1cnc(-c2ccc(OCCCN3CCC(Cc4cnc[nH]4)CC3)cc2)nc1`, in that order: 45 nM and 6000 nM.
`O=C1CCCCN1Cc1ccc(OCCCN2CCC(Cc3cnc[nH]3)CC2)cc1` gave a Ki on Histamine H3 receptor [2] of 34 nM. This compound showed an IC50 on Cytochrome P450 2D6 [3] of 5000 nM.
Regarding `O=C(c1ccc(OCCCN2CCC(Cc3cnc[nH]3)CC2)nc1)N1CCCCC1`, on Histamine H3 receptor [2], the Ki is 24 nM. The Kb at Histamine H3 receptor [4] is 20 nM. In addition, on Cytochrome P450 2D6 [1], the IC50 is 2000 nM.
On Histamine H3 receptor [2], `c1ncc(CC2CCN(CCCOc3ccc(NC4CCCCC4)cc3)CC2)[nH]1` displayed a Ki of 15 nM. On Cytochrome P450 2D6 [1], this compound came in with an IC50 of 900 nM.
`c1ncc(CC2CCN(CCCOc3ccc(CCN4CCCCC4)cc3)CC2)[nH]1` returned an inhibitory constant (Ki) at Histamine H3 receptor [2] of 3 nM. This compound also showed an IC50 on Cytochrome P450 2D6 [3] of 1000 nM. Also, on Histamine H3 receptor [4], the Kb is 3.16 nM.
On Cytochrome P450 2D6 [1], `O=C(CCOc1ccc(C(=O)N2CCNCC2)cc1)N1CCC(Cc2c[nH]cn2)CC1` showed an IC50 of 30000 nM.
`O=C(Nc1nccs1)N1CCC(Cc2cnc[nH]2)CC1` gave a Ki at Histamine H3 receptor [2] of 4 nM. Also, the AUC(0-t) at 6 h in data set [5] came to 1.03 µM·h. Further, the Kb on Histamine H3 receptor [4] is 25.1 nM. The IC50 against Cytochrome P450 2D6 [1] stood at 2000 nM.
`O=C(Nc1ncccn1)N1CCC(Cc2c[nH]cn2)CC1`: the Ki at Histamine H3 receptor [2] stood at 8 nM. The Kb on Histamine H3 receptor [4] was 25.1 nM. This compound also displayed an IC50 against Cytochrome P450 2D6 [1] of 6000 nM.
On the same counts, the results for `CCN(CC)Cc1ccc(OCCCN2CCC(Cc3c[nH]cn3)CC2)cc1` are 4 nM, 1.58 nM and 6000 nM.
Turning to `c1nc(CC2CCN(CCCOc3ccc(N4CCCCC4)cc3)CC2)c[nH]1`, at Histamine H3 receptor [2], the affinity corresponds to a Ki of 15 nM. Half-maximal inhibition at Cytochrome P450 2D6 [1] (IC50) was put at 1000 nM.
`c1cc(OCCCN2CCC(Cc3cnc[nH]3)CC2)cc(OC2CCCCC2)c1`: the Ki at Histamine H3 receptor [2] was 3 nM. At Cytochrome P450 2D6 [1], this compound gave an IC50 of 2000 nM.
`c1cc(CN2CCCCC2)cc(OCCCN2CCC(Cc3cnc[nH]3)CC2)c1` gave a Ki on Histamine H3 receptor [2] of 1 nM. The Kb at Histamine H3 receptor [4] was 3.98 nM. On Cytochrome P450 2D6 [1], the IC50 worked out at 3000 nM.
`O=C(CCc1ccc(CN2CCCCC2)cc1)N1CCC(Cc2c[nH]cn2)CC1` came in with a Ki on Histamine H3 receptor [2] of 45 nM. The compound further gave a concentration for half-maximal inhibition (IC50) on Cytochrome P450 2D6 [1] of 3000 nM.
On to `CN(C)CCCOc1ccc(CN2CCCCC2)cc1`, for which the affinity on Histamine H3 receptor [2], expressed as Ki, was 33 nM. Also, the IC50 against Cytochrome P450 3A4 and at Cytochrome P450 2D6 [1] was > 30000 nM in each case. Also, the Kb on Histamine H3 receptor [4] was 31.6 nM.
`c1ncc(CC2CCN(CCCOc3ccc(CN4CCC(N5CCCCC5)CC4)cc3)CC2)[nH]1` returned a Ki on Histamine H3 receptor [2] of 3 nM. Moreover, on Cytochrome P450 2D6 [1], the IC50 is > 30000 nM.
On the same counts, the results for `c1cncc(-c2ccc(OCCCN3CCC(Cc4cnc[nH]4)CC3)cc2)c1` are 12 nM and 300 nM.
Take `c1nc(CC2CCN(CCCOc3ccc(CN4CCCCC4)cc3)CC2)c[nH]1`: the Ki on Histamine H3 receptor [2] amounted to 3 nM. This compound registered an AUC(0-t) at 24 h in data set [6] of 3.2 µM·h. Further, the Kb on Histamine H3 receptor [4] is 2.51 nM. Besides, 14000 nM corresponded to half-maximal inhibition against Cytochrome P450 2D6 [1] (IC50).
As for `O=C(c1ccc(OCCCN2CCC(Cc3cnc[nH]3)CC2)cc1)N1CCNCC1`, the Ki on Histamine H3 receptor [2] worked out at 23 nM. Further, the Kb on Histamine H3 receptor [4] was 15.8 nM. Further, the IC50 on Cytochrome P450 2D6 [1] is > 20000 nM.
Consider `O=C(CCN1CCC(Cc2c[nH]cn2)CC1)Nc1ccc(CN2CCCCC2)cc1`, for which the Ki on Histamine H3 receptor [2] stood at 40 nM. On Cytochrome P450 2D6 [1], this compound gave an IC50 of 9000 nM.
On the same counts, the results for `c1ncc(CC2CCN(CCCOc3ccc(N4CCNCC4)cc3)CC2)[nH]1` are 12 nM and > 20000 nM.
Consider `CN(C)CCCOc1ccc(CCCN2CCC(Cc3cnc[nH]3)CC2)cc1`, for which the Ki at Histamine H3 receptor [2] amounted to 13 nM. Besides, the Kb at Histamine H3 receptor [4] was 50.1 nM. In addition, the IC50 against Cytochrome P450 2D6 [1] was > 30000 nM.
